Results: ChEMBL document CHEMBL1145276, “Synthesis and biological evaluation of 6,7-disubstituted 4-aminopyrido[2,3-d]pyrimidines as adenosine kinase inhibitors” (Bioorg Med Chem Lett, 2005)

Experiments:
Adenosine kinase [1] = target: T1, Adenosine kinase (Homo sapiens, UniProt P55263); test: Inhibitory concentration against Adenosine Kinase (enzyme)
Adenosine kinase [2] = target: T1, Adenosine kinase; test: Inhibitory concentration against Adenosine Kinase (intact cells)

T1 sequence (P55263 whole entry): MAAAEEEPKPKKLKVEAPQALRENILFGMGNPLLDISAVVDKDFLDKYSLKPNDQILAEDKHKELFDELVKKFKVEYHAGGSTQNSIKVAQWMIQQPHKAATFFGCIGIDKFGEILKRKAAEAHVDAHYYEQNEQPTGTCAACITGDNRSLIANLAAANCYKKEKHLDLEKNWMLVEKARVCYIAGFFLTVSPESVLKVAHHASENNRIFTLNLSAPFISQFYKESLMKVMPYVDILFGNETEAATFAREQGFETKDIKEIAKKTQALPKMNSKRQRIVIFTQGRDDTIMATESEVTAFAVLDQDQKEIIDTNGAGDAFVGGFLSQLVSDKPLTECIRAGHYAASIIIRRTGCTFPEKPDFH

Row | SMILES | IC50 (Adenosine kinase [1]) [nM] | IC50 (Adenosine kinase [2]) [nM]
1 | CN(C)c1ccc(-c2nc3ncnc(N)c3cc2-c2ccccc2)cc1 | 350 | –
2 | Cc1ccc(-c2cc3c(N)ncnc3nc2-c2ccsc2)cc1 | 47 | > 1000
3 | CN(C)c1ccc(-c2cc3c(N)ncnc3nc2-c2ccc(N(C)C)cc2)cc1 | 183 | 367
4 | COc1ccc(-c2cc3c(N)ncnc3nc2-c2cccs2)cc1OC | 38 | 300
5 | CN(C)c1ccc(-c2nc3ncnc(N)c3cc2-c2cccc(Br)c2)cc1 | 70 | > 1000
6 | CCCCCc1cc2c(N)ncnc2nc1-c1ccc(N(C)C)cc1 | 30 | 700
7 | CN(C)c1ccc(-c2nc3ncnc(N)c3cc2CCc2ccccc2)cc1 | 433 | –
8 | Cc1ccc(-c2cc3c(N)ncnc3nc2-c2cc3ccccc3o2)cc1 | > 1000 | –
9 | CC(C)Cc1cc2c(N)ncnc2nc1-c1ccc(N(C)C)cc1 | 200 | > 1000
10 | CN(C)c1ccc(-c2nc3ncnc(N)c3cc2-c2ccc(Br)cc2)cc1 | 20 | > 1000
11 | Nc1ncnc2nc(-c3cccs3)c(Cc3cccc(Br)c3)cc12 | 3.8 | 650
12 | COc1cccc(-c2cc3c(N)ncnc3nc2-c2ccc(N(C)C)cc2)c1 | > 1000 | –
13 | COc1ccc(-c2cc3c(N)ncnc3nc2-c2ccc(N(C)C)cc2)cc1OC | 45 | 350
14 | CN(C)c1ccc(-c2nc3ncnc(N)c3cc2CCCc2ccccc2)cc1 | 2230 | –
15 | COc1ccc(-c2cc3c(N)ncnc3nc2-c2ccc(N(C)C)cc2)cc1Br | 33 | 225
16 | Cc1ccc(-c2cc3c(N)ncnc3nc2-c2ccc(/C=C/c3ccccn3)cc2)cc1 | 115 | –
17 | CN(C)c1ccc(-c2cc3c(N)ncnc3nc2-c2ccncc2)cc1 | 467 | 4170
18 | CCCCc1cc2c(N)ncnc2nc1-c1cccs1 | 11 | 767
19 | Cc1ccc(-c2cc3c(N)ncnc3nc2-c2cccs2)cc1 | 9 | 800
20 | COc1ccc(-c2cc3c(N)ncnc3nc2-c2ccc(N(C)C)cc2)cc1 | 92 | –
21 | CN(C)c1ccc(-c2ccc3c(N)ncnc3n2)cc1 | 773 | > 10000
22 | Nc1ncnc2nc(-c3nccs3)c(Cc3cccc(Br)c3)cc12 | 900 | –
23 | Cc1ccc(-c2cc3c(N)ncnc3nc2-c2ccc(-c3cncnc3)cc2)cc1 | 180 | –
24 | COc1ccc(-c2cc3c(N)ncnc3nc2-c2cccs2)cc1Br | 8 | 375
25 | CN(C)c1ccc(-c2nc3ncnc(N)c3cc2Cc2ccccc2)cc1 | 114 | 650
26 | CN(C)c1ccc(-c2cnc3c(N)ncnc3n2)cc1 | 440 | –
